Results on one molecule are retold here after patent US9364455B2, “Combination of a prostaglandin receptor agonist and an MC1R receptor agonist for the treatment and/or prevention of pigmentation disorders” (GALDERMA RESEARCH & DEVELOPMENT, priority 2011, dated 2016).

This experiment relates to tail skin of SKH2 mice. Kind of experiment: Propigmenting activity by topical application on the tail of SKH2 mice (clinical pigmentation score, luminance by colorimeter). The conditions noted are these: 5 days per week for 57 days, 0.01% travoprost, MC1R agonist A at 7%, B at 8%, compared with carrier group (combinations also with 0.01% travoprost alone). It is filed as in vivo. An excerpt:
In mice, melanocytes are not present in the epidermis of the areas covered with hair and are mainly present in the hair follicles. The tail skin of SKH2 mice is pigmented, which is of particular interest for evaluating the effect of topical agents on skin pigmentation. The pigmentation modifications induced by these topical compounds can be quantified by various means, for instance the clinical score of the pigmentation and the measurement of the tail color using a colorimeter. The evaluation of the propigmenting activity of 0.01% travoprost alone or in combination with MC1R receptor agonists: compound A at 7% or compound B at 8%, is carried out by topical application on the tail of SKH2 mice for 57 days. The treatment is carried out 5 days per week for 57 days. 20 μl of the test product diluted in the carrier 145 are applied to the tail. In the case of the combinations, 20 μl of the MC1R agonist solution are applied after the treatment with 20 μl of the 0.01% travoprost solution. The clinical score of the animals is recorded once a week before irradiation; the pigmentation is evaluated by virtue of a score on a scale of 0 to 4. […]

Regarding `CC(C)OC(=O)CCC/C=C\C[C@@H]1[C@@H](/C=C/[C@@H](O)COc2cccc(C(F)(F)F)c2)[C@H](O)C[C@@H]1O` [travoprost], the “clinical score for pigmentation (natural pigmentation of the tail skin)” value is reported as “moderately increases the natural pigmentation of the tail skin as early as day 36”.
